Data taken from patent US5789395A, “Method of using tetracycline compounds for inhibition of endogenous nitric oxide production” (The Research Foundation of State University of New York, priority 1996, dated 1998).

Assays:
[1] = system: 133 kD iNOS; experiment: iNOS protein expression in LPS-activated RAW 264.7 cells (Western blot); format: cell-based, murine; settings: 10 μM, positive control
Experimental: RAW 264.7 cells were activated with 100 ng/mL LPS for 16-18 h, with and without doxycycline or minocycline (20-80 μg/mL) or with hydrocortisone (10 μM). Cell-free extracts were prepared as described above. The extract s were analyzed for 133 kD iNOS by Western blotting, using specific anti-iNOS antibodies.
Equal amounts of protein (25-50 μg) estimated by BCA reagent (Pierce, Rockford, Ill.) were loaded onto SDS-PAGE gels and stained to verify the concentrations of various protein fractions by examining the intensities of the protein bands on the gels. Western blot analysis was carried out from the same cell extracts. The Western-blotted membrane was probed with a specific anti-murine iNOS monoclonal antibody (Transduction Laboratories, Lexington, Ky.), as specified by the supplier. The same blot was also probed with an anti-actin antibody generously provided by Dr. James L. Lessard (Children's Hospital Medical Center, Cincinnati, Ohio). The blots were developed using the ECL Western blot system (Amersham, Arlington Heights, Ill.). Quantitation of the bands was performed using a densitometer from Molecular Dynamics (Sunnyvale, Calif.). FIG. 5 is representative.

[2] = system: iNOS mRNA; experiment: iNOS mRNA expression in LPS-stimulated RAW cells (Northern blot); format: cell-based, murine; settings: Mus musculus
Experimental: Northern blot analysis of the iNOS MRNA expressed by the cells was then carried out to evaluate precisely the effect of iNOS expression in the presence of doxycycline and minocycline. The probes again were the iNOS and β-actin CDNA probes described above.
In this case, total RNA was isolated using TRI Reagent (MRC Inc., Cincinnati, Ohio). […] Briefly, 30 μg of RNA was subjected to electrophoresis in 1% agarose formaldehyde gel. The gel was then transferred via capillary action onto a nylon membrane (Zeta Probe, Bio-Rad Laboratories, Melville, N.Y.). The membrane was hybridized with [^32 P]-dCTP-labeled iNOS CDNA (4 kb SmaI fragment), a kind gift from Dr. James Cunningham (Harvard Medical School, Boston, Mass.). After hybridization, the blot was exposed to Kodak X-ray film (Kodak, Rochester, N.Y.) for 24-48 h with intensifying screens at -70° C. The β-actin probe was purchased from ClonTech (Palo Alto, Calif.) and probed as described above. Quantitation of the intensity of the iNOS/β-actin bands was performed using a phosphoimager (Molecular Dynamics, Sunnyvale, Calif.).

[3] = system: iNOS; experiment: iNOS activity (L-arginine-to-L-citrulline) in cell-free extracts of cells treated with modulator before LPS; format: cell-based, murine; settings: positive control
Experimental: Murine macrophage cells (RAW 264.7) were incubated with 20-80 μg/mL doxycycline or minocycline, 10 μM hydrocortisone (Sigma Chemical Co., St. Louis, Mo.), or 75 μM L-NMMA for 1-2 h, followed by addition of LPS at 100 ng/mL and incubation for 16-18 h. Cell-free extracts were prepared at the end of each time period. Specific activity of iNOS was determined in the cell-free extracts by monitoring the conversion of L-[^3 H]-arginine to L-[^3 H]-citrulline as described by Amin et al. (1995b) and Vyas et al. (1996).
Cell-free extracts were prepared as follows: Following induction by incubation with LPS, the cells were pelleted at 4° C. and resuspended in Tris buffer (10 mM, pH 7.4) containing 10 μg/mL each chymostatin, antipain, leupeptin and pepstatin, 1 mM DTT and 1 mM PMSF. Cells were lysed in a Polytron PT 1200 homogenizer (Kinematica AG, Switzerland) after 3 cycles of rapid freeze-thawing. The lysate was centrifuged at 16,000 rpm for 60 min at 4° C., and the supernatants were used as cell-free extracts.
The protein in the extracts was measured by BCA assay reagent using BSA as standard (Smith et al. 1985). The reaction mixture for iNOS assay consists of Tris 50 mM (pH 7.8); BSA 1 mg/mL; DTT 1 mM; CaCl2, 2 mM; FAD 10 μM; BH4 10,μM; L-arginine 30 μM; NADPH 1 mM. The reaction mixture was spiked with 1μL (250 nM) of L-[^3 H]-arginine (Dupont NEN, Boston, Mass.) (1 mCi/mL=37.0 MBq/mL). After 20 min the assays were terminated by heating the reaction mixture at 90° C. for 5 min. Ten microiters (≈100,000 cpm) of the supernatant was spotted on activated AVICEL TLC plates (Analtech, Newark, Del.). The TLC plates were developed in a solvent system consisting of ethanol:water:ammonia (80:16:4). Quantitation of the spot for L-[^3 H]-citrulline was performed by a Bioscan System 200 Imaging Scanner.

[4] = system: iNOS mRNA; experiment: iNOS mRNA expression in LPS-stimulated RAW 264.7 cells (RT-PCR); format: cell-based, murine; settings: Mus musculus, RAW264.7, read-out: decrease of iNOS mRNA
Experimental: Doxycycline and minocycline may suppress iNOS before the synthesis of the enzyme, leading to inhibition of iNOS protein expression, specific activity and accumulation of nitrite. […] Therefore, to determine the level at which tetracycline inhibited iNOS protein expression, RAW 264.7 cells treated with LPS in the presence or absence of doxycycline and minocycline were analyzed for iNOS mRNA by semi-quantitative RT-PCR.
The presence of iNOS and β-actin mRNA in cells was analyzed by reverse transcription (RT) of total RNA followed by PCR amplification of the cDNA. The sense and antisense oligonucleotides for iNOS were, respectively, 5'-ACGGAGAAGCTTAGATCTGGAGCAGAAGTG-3'(142 to 171) (SEQ ID NO:1) and 5'-CTGCAGGTTGGACCACTGGATCCTGCCGAT-3' (767 to 796) (SEQ ID NO:2). The sense and antisense primers for β-actin were 5'-TCCTTCGTTGCCGGTCCACA-3' (44 to 63) (SEQ ID NO:3) and 5'-CGTCTCCGGAGTCCATCACA-3' (534 to 552) (SEQ ID NO:4), respectively. The predicted PCR product of the iNOS cDNA was 654 bp; that of the β-actin cDNA was 508 bp. The polymerase chain reaction was carried out in an automated DNA thermal cycle (Perkin-Elmer Cetus, Norwalk, Conn.). The total RNA was extracted using TRI-Reagent (MRC Inc., Cincinnati, Ohio). The cDNA was prepared from equal amounts (1-5 μg) of total RNA using a SuperScript™ RNase H Reverse Transcriptase (Gibco BRL, Gaithersburg, Md.). An equal amount of the cDNA was used to amplify the mRNA by PCR. PCR amplification was performed in 50 μL solution containing 1.5 mM MgCl2, 500 ng iNOS primer, 100 ng β-actin primer, 0.2 mM of each dNTP, 2.5 units of Taq DNA polymerase (Gibco). The cycle conditions for amplification of cDNA were 1 min at 94° C., 1-2 min at 55° C. and 3 min at 72° C. for 30 cycles for both iNOS and β-actin. The PCR product was analyzed by electrophoresis on 1.0% agarose gels.
RT-PCR analysis of iNOS and βactin mRNA expression in RAW 264.7 cells was carried out after stimulation with LPS±doxycycline or minocycline. […] Equal amounts of RNA were analyzed for iNOS and β-actin expression as described above.

[5] = system: iNOS expression in macrophages; settings: Nathan et al. 1994, Vodovotz et al. 1993; cited from earlier work
[6] = system: iNOS; settings: in vitro; Amin et al. 1995b; cited from earlier work
[7] = system: collagenase; settings: cited from earlier work
[8] = system: renal mesangial cells; experiment: NO production by IFN-γ/LPS-stimulated renal mesangial cells (Greiss reaction); format: cell-based, rat; settings: for inhibition of NO production, time course: 24-72 hr; for Emax at 5 µg/mL: Rattus norvegicus, Mesangial cell, 5 μg/mL, 48 hr, P<0.01, read-out: inhibition of NO production, maximal effect
Text: The use of IFN-γ to induce renal injury is a model of glomerulonephritis known in the art. Glomerulonephritis is characterized by increased production of NO.

[9] = system: iNOS expression in mesangial cells; settings: Pfeilschifter et al. (1995); cited from earlier work
[10] = system: NOS; settings: competitive inhibitor; cited from earlier work

C[C@]12CCC(=O)C=C1CC[C@@H]1[C@@H]2[C@@H](O)C[C@@]2(C)[C@H]1CC[C@]2(O)C(=O)CO [hydrocortisone]
inhibition of iNOS protein expression [1]: 43% | inhibition at 10 µM ([2]; read-out: inhibition of iNOS mRNA expression, 10 μM, doxycycline experiment (FIG. 6C)): 73% | inhibition at 10 µM ([2]; read-out: inhibition of iNOS mRNA expression, 10 μM, minocycline experiment (FIG. 6D)): 76% | inhibition of iNOS activity ([3]; 10 μM): 60% | inhibition at 10 µM [4]: 50 to 100% | suppression of iNOS expression [5]: suppress iNOS expression by decreasing mRNA expression

CC(=O)n1ccnc1 [N-acetyl imidazole, N-acetylimidazole]
inhibition of iNOS catalytic activity [6]: inhibit iNOS catalytic activity in vitro

NC(=O)C1=C(O)C2(O)C(=O)C3=C(O)c4c(O)cccc4CC3CC2CC1=O (centres unmarked) [CMT-3, 6-demethyl-6-deoxy-4-dedimethylaminotetracycline]
anti-collagenase activity [7]: high level of anti-collagenase activity | inhibition of NO production, time course [8]: time-dependent inhibition of NO production | Emax at 5 µg/mL [8]: > 80%

TGF-β1: suppresses iNOS expression in macrophages
suppression of iNOS expression [5]: suppress iNOS expression by decreasing mRNA expression

CC(=O)Oc1ccccc1C(=O)O [aspirin]
inhibition of iNOS catalytic activity [6]: inhibit iNOS catalytic activity in vitro

CC1(O)c2cccc(O)c2C(=O)C2=C(O)C3(O)C(=O)C(C(N)=O)=C(O)CC3CC21 (centres unmarked) [CMT-1, 4-dedimethylaminotetracycline]
anti-collagenase activity [7]: modest anti-collagenase activity | NO production (% of control) ([8]; 10 μg/mL, after 48 hr): ~ 60 % of control

C[C@@H]1C[C@H]2[C@@H]3CCC4=CC(=O)C=C[C@]4(C)[C@@]3(F)[C@@H](O)C[C@]2(C)[C@@]1(O)C(=O)CO [dexamethasone]
suppression of IL-1β-induced iNOS expression [9]: acts at multiple levels (including transcription of iNOS) to suppress IL-1β-induced iNOS expression

C[C@H]1c2cccc(O)c2C(O)=C2C(=O)[C@]3(O)C(O)=C(C(N)=O)C(=O)C[C@@H]3[C@@H](O)[C@@H]21 [CMT-8, 6-α-deoxy-5-hydroxy-4-dedimethylaminotetracycline]
anti-collagenase activity [7]: high level of anti-collagenase activity | inhibition of NO production, time course [8]: time-dependent inhibition of NO production | Emax at 5 µg/mL [8]: > 80%

CN=C(N)NCCC[C@H](N)C(=O)O [L-NMMA]
inhibition of iNOS activity ([3]; 75 μM): 64% | inhibition of NOS activity [10]: > 95%
